Experimental findings from BigSolDB 2.1 are described below.

For the data set the following is noted: in water.

Regarding `O=C(O)/C=C\C(=O)O`, the solubility (mole fraction) reads like this: (278.15 K) 0.0673; (283.15 K) 0.0779; (288.15 K) 0.0869; (293.15 K) 0.0969; (298.15 K) 0.111; (303.15 K) 0.124. Further, the solubility (mole fraction) by setting is: (308.15 K) 0.142; (313.15 K) 0.154; (318.65 K) 0.174; (323.15 K) 0.184; (328.15 K) 0.199; (333.15 K) 0.218. For the setting “338.15 K”, this compound came in with a solubility (mole fraction) of 0.232.

Consider `O=C(O)CC(O)C(=O)O` (stereo unspecified), for which the solubility (mole fraction) reads like this: (278.15 K) 0.112; (283.15 K) 0.121; (288.15 K) 0.132; (293.15 K) 0.145; (298.15 K) 0.158; (303.15 K) 0.168. Besides, the solubility (mole fraction) was determined as 0.181 (308.15 K); 0.198 (313.15 K); 0.209 (318.65 K); 0.231 (323.15 K); 0.248 (328.15 K); 0.269 (333.15 K). This compound also showed a solubility (mole fraction) (338.15 K) of 0.294.

By solubility (mole fraction) is commonly meant solubility expressed as the solute's share of all molecules.
